Consider one molecule from patent US20240350483A1, “COMBINATION THERAPY FOR THE TREATMENT OF PSYCHIATRIC DISORDER” (GSKB Pharmaceuticals, LLC, priority 2023, published 2024).

Data set [1] deals with Patients with Major Depressive Disorder (MDD). The data set can be described thus: Case 2: outpatient treatment of persistent suicidal ideation. Type of data set: in vivo, human. The text has this:
Treatment of Chronic Suicidal Ideation and Behavior in Patients with Major Depressive Disorder (MDD).
A person presented to the outpatient psychiatric clinic accompanied by their spouse and child after being referred by a friend. Their condition had not improved over the past several years despite ongoing psychiatric treatment including in-patient hospitalizations and multiple medication failures. They reported they had been, “feeling the stress”, experiencing racing and ruminating thoughts, difficulty with conversation, and panic. They expressed persistent suicidal ideation. They denied current or past self-injurious behavior.
• Sensorium: Alert and oriented to person, place, time, situation • Appearance: Casually dressed, well kempt, appeared older than stated age, thin to normal body habitus • Affect: Constricted, tearful at times • Mood: Depressed • Speech: Normal rate, tone, and rhythm. Louder when irritable and argumentative • Thought Content: Passive suicidal ideation, no delusions. • Thought Process: Coherent, logical, mildly circumstantial. • Perception: No auditory or visual hallucinations • Memory: Intact • Abstract Thinking: Intact • Judgment: Fair to good • Insight: Good
During their initial psychiatric evaluation, they were diagnosed with Bipolar Disorder, Unspecified; Rule out Amphetamine-induced psychosis due to their intermittent paranoia, impulsivity, and agitation. […]

For data set [2] the test system is unchanged. The experiment in a line: Case Study 1: outpatient treatment of chronic suicidal ideation and behavior. In kind it is in vivo, human. The protocol: Treatment of Chronic Suicidal Ideation and Behavior in Patients with Major Depressive Disorder (MDD). A married person and parent of three, presented to the outpatient clinic Jul. 16, 2019 to establish care with a new psychiatrist for management of their depression, mood swings, and persistent suicidal ideations. They reported that their current medications, bupropion XL 300 mg q daily, valproic acid 500 mg BID, quetiapine 200 mg daily, and venlafaxine XR 150 mg BID, modafinil 200 mg q AM and noon, buspirone 10 mg TID are not helping. They had been experiencing acute daily changes in mood consisting of unhappiness, irritability, and anger with lead to arguments with their spouse and family. They had been suffering from persistent depression, self-harm, and suicidal impulses. They had three previous suicide attempts resulting in hospitalization, the most recent being six years prior. • During the Initial Psychiatric Evaluation, they were alert and oriented to person, place, time, and situation. […]

Consider `CCc1nn(CCCN2CCN(c3cccc(Cl)c3)CC2)c(=O)n1CCOc1ccccc1` [nefazodone, 1-(3-[4-(3-chlorophenyl)piperazin-1-yl]propyl)-3-ethyl-4-(2-phenoxyethyl)-1H-1,2,4-triazol-5 (4H)-one], for which, in data set [1] (nefazodone restarted and slightly increased, close follow up), the “suicidal thoughts after restarting nefazodone” value is on record as “rapid disappearance”. Further, in data set [1] (nefazodone stopped for several weeks, after eight months of stability), the “suicidal ideation after stopping nefazodone” value is reported as “having suicidal ideation”. Further, the “suicidal ideations after forgetting and running out of nefazodone” value in data set [2] (Nov. 11, 2019, treatment interrupted) is on record as “more suicidal ideations”. Also, the side effect reported result in data set [2] (suspected to be caused by increase in nefazodone to 200 mg BID) was “drowsiness”.
